Assay results taken from US20240174637A1, “DEGRADERS OF GRK2 AND USES THEREOF” (Sonata Therapeutics, Inc., priority 2021, published 2024).
Counter-ions that a name gives are not always drawn. Like-named read-outs stand apart in the source and are kept apart here.

What was measured:
[1] = system: PAXF1657 KO Clone #4; assay: 7-day cellular proliferation assay (CellTiter-Glo), PAXF1657 KO Clone #4; assay type: cell-based; conditions: 168 h, 7-day, read-out: 7-day proliferation assay: IC50 GeoMean (uM) [Cell Line: PAXF1657 KO Clone #4]
Method in brief: (§1)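 Read-out is CellTiter-Glo luminescence after 7 days of continuous exposure, with compound re-dosed in fresh medium at day 3. Cells were seeded at 500/well and treated across 30 μM-0.0002 μM (10 points, 0.3% DMSO); baseline viability plates were read at compound addition.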

[2] = target: T1, GRK2 (Homo sapiens, UniProt P25098); assay: GRK2 Degradation Assay and Western Blot in PAXF1657 cells; assay type: cell-based; set-up: endogenous in cells; host or cells: PAXF1657; conditions: for GRK2 degradation, dose dependence (FIGS. 1A-1D): 24-hour treatment in PAXF1657 cells; for DC50: PAXF1657, 24 h, read-out: Degradation Assay - Full Dose Response: IC50 (uM) [cell line: PAXF1657, time point: 24 h]
T1 sequence (P25098 1-689): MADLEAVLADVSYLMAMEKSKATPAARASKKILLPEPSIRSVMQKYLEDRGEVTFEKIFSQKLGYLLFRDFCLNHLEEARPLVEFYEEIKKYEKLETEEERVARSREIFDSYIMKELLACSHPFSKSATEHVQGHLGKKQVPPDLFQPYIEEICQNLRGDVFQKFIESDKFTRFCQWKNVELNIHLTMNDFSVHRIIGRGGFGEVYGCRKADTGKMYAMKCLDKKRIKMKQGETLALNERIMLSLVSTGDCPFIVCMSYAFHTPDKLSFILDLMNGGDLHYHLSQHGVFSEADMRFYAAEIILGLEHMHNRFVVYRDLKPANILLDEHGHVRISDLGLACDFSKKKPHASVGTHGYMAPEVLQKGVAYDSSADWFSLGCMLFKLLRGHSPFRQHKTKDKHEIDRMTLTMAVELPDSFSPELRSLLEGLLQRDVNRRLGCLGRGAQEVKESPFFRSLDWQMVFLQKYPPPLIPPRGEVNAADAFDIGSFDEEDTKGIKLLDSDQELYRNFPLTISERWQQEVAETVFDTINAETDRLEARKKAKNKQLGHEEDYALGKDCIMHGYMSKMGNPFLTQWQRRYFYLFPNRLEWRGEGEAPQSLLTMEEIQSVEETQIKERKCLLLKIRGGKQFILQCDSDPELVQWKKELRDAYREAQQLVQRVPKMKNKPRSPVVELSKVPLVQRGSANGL
Method in brief: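 PAXF1657 cells grown to 70% confluency, then treated with compounds at 0–10 μM for 6 to 24 h at 37 °C. Lysates in PBS with 1% NP40 run on SDS-PAGE. GRK2 protein detected by western blot with β-actin as loading reference, using ECL chemiluminescence.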

[3] = target: T1, GRK2; assay: GRK2 Inhibition Assay (TR-FRET, Example 1); assay type: biochemical
Experimental: Assay: GRK2 enzyme (1 nM final concentration) was diluted in 25 mM HEPES, 10 mM MgCl2, 2 mM DTT, 0.01% Tween-20, and 1 mM EGTA. Then the GRK2 mixture was added into ProxiPlate-384 white plate and pre-incubated for 30 min with test compounds at room temperature. ATP (7 μM final concentration) and Ulight TopoIIα (50 nM final concentration) were added into the assay plate to initiate the reaction and the mixture was incubated at room temperature for 90 min. Then, Eu anti-TopoIIα (0.12 nM final concentration), BSA (0.01% final concentration), and EDTA (11 mM final concentration) in LANCE assay buffer were added into each well. After 60 min incubation time at room temperature, TR-FRET signal was measured by EnVision plate reader.

[4] = system: PAXF1657 EV; assay: 7-day cellular proliferation assay (CellTiter-Glo), PAXF1657 EV; assay type: cell-based; conditions: 168 h, 7-day, read-out: 7-day proliferation assay: IC50 GeoMean (uM) [Cell Line: PAXF1657 EV]
Method in brief: as §1

[5] = 0.3 uM, PAXF1657 EV, 24 hrs, read-out: % GRK2 degradation at 0.3 uM in PAXF1657 EV (24 hrs)
[6] = 1 uM, PAXF1657 EV, 24 hrs, read-out: % GRK2 degradation at 1 uM in PAXF1657 EV (24 hrs)
[7] = 3 uM, PAXF1657 EV, 24 hrs, read-out: % GRK2 degradation at 3 uM in PAXF1657 EV (24 hrs)
[8] = TR-FRET, 7 μM ATP, read-out: Enzymatic GRK2 Assay: IC50 (nM) (Example 1)
[9] = Conc 0.3 uM, read-out: Degradation Assay - 3 point: Degradation (%)
[10] = Conc 1 uM, read-out: Degradation Assay - 3 point: Degradation (%)
[11] = Conc 3 uM, read-out: Degradation Assay - 3 point: Degradation (%)
[12] = Table 4, Example 1 assay, read-out: Enzymatic GRK2 IC50: Av IC50 GRK2

Compound | inhibition at 0.3 µM [2, 5] [%] | inhibition at 1 µM [2, 6] [%] | inhibition at 3 µM [2, 7] [%] | IC50 [3, 8] [nM] | % GRK2 degradation at 0.1 uM in PAXF1657 EV (24 hrs) ([2]; PAXF1657 EV, 24 hrs) [%] | % GRK2 degradation at 10 uM in PAXF1657 EV (24 hrs) ([2]; PAXF1657 EV, 24 hrs) [%] | GRK2 degradation, dose dependence (FIGS. 1A-1D) [2] | % GRK2 degradation at 0.03 uM in PAXF1657 EV (24 hrs) ([2]; PAXF1657 EV, 24 hrs) [%] | inhibition at 0.3 µM [2, 9] [%] | inhibition at 1 µM [2, 10] [%] | inhibition at 3 µM [2, 11] [%] | IC50 [3, 12] [nM] | DC50 [2] [µM] | IC50 [1] [µM] | IC50 [4] [µM]
Cc1ncsc1-c1ccc(CNC(=O)[C@@H]2C[C@@H](O)CN2C(=O)[C@@H](NC(=O)CCCCCOCCOCCOCCCCCCOc2cccc([C@H](C)NC(=O)c3cccc(NCc4nnc(-c5ccncn5)n4C)c3)c2)C(C)(C)C)cc1 [Compound D78, (2S,4R)-1-((S)-2-(tert-butyl)-22-(3-((S)-1-(3-(((4-methyl-5-(pyrimidin-4-yl)-4H-1,2,4-triazol-3-yl)methyl)amino)benzamido)ethyl)phenoxy)-4-oxo-10,13,16-trioxa-3-azadocosan-1-oyl)-4-hydroxy-N-(4-(4-methylthiazol-5-yl)benzyl)pyrrolidine-2-carboxamide] | -12 | -21 | -18 | < 100 | – | – | – | – | – | – | – | – | – | 1 to 10 | < 1
C[C@H](NC(=O)c1cccc(NCc2nnc(-c3ccncn3)n2C)c1)c1ccc(OCCCN2CCN(c3ccc4c(c3)CN(C3CCC(=O)NC3=O)C4=O)CC2)cc1 (stereo partly drawn) [Compound D118, N-((1S)-1-(4-(3-(4-(2-(2,6-dioxopiperidin-3-yl)-1-oxoisoindolin-5-yl)piperazin-1-yl)propoxy)phenyl)ethyl)-3-((4-methyl-5-(pyrimidin-4-yl)-4H-1,2,4-triazol-3-yl)methylamino)benzamide hydrochloride] | – | – | – | – | – | – | – | – | -13.1 | 3.23 | 5.18 | > 1000 | – | – | –
C[C@@H](NC(=O)c1cccc(NCc2nnc(-c3ccncn3)n2C)c1)c1cccc(OCCCCCCOCCN2CCN(c3cc4c(cc3F)C(=O)N(C3CCC(=O)NC3=O)C4=O)CC2)c1 (stereo partly drawn) [Compound D134, N-((1R)-1-(3-(6-(2-(4-(2-(2,6-dioxopiperidin-3-yl)-6-fluoro-1,3-dioxoisoindolin-5-yl)piperazin-1-yl)ethoxy)hexyloxy)phenyl)ethyl)-3-((4-methyl-5-(pyrimidin-4-yl)-4H-1,2,4-triazol-3-yl)methylamino)benzamide] | – | – | – | – | – | – | – | – | 64.1 | 82.6 | 86.7 | 29.9 | 0.29 | – | –
C[C@@H](NC(=O)c1cccc(NCc2nnc(-c3ccncn3)n2C)c1)c1cccc(OCCCCCCOCCOCCN2CCN(c3ccc4c(c3)CN(C3CCC(=O)NC3=O)C4=O)CC2)c1 (stereo partly drawn) [Compound D135, N-((1R)-1-(3-(6-(2-(2-(4-(2-(2,6-dioxopiperidin-3-yl)-1-oxoisoindolin-5-yl)piperazin-1-yl)ethoxy)ethoxy)hexyloxy)phenyl)ethyl)-3-((4-methyl-5-(pyrimidin-4-yl)-4H-1,2,4-triazol-3-yl)methylamino)benzamide] | – | – | – | – | – | – | – | – | 82.2 | 84.2 | 84.3 | 23.7 | 0.06 | – | –

Second part, led by results:

inhibition at 0.3 µM [2, 5] [%] | inhibition at 1 µM [2, 6] [%] | inhibition at 3 µM [2, 7] [%] | IC50 [3, 8] [nM] | % GRK2 degradation at 0.1 uM in PAXF1657 EV (24 hrs) ([2]; PAXF1657 EV, 24 hrs) [%] | % GRK2 degradation at 10 uM in PAXF1657 EV (24 hrs) ([2]; PAXF1657 EV, 24 hrs) [%] | GRK2 degradation, dose dependence (FIGS. 1A-1D) [2] | % GRK2 degradation at 0.03 uM in PAXF1657 EV (24 hrs) ([2]; PAXF1657 EV, 24 hrs) [%] | inhibition at 0.3 µM [2, 9] [%] | inhibition at 1 µM [2, 10] [%] | inhibition at 3 µM [2, 11] [%] | IC50 [3, 12] [nM] | DC50 [2] [µM] | Compound | IC50 [1] [µM] | IC50 [4] [µM]
70 | 82 | 85 | < 100 | – | – | – | – | – | – | – | – | – | C[C@@H](NC(=O)c1cccc(NCc2nnc(-c3ccncn3)n2C)c1)c1cccc(OCCCCCCOCCOCCOCCCCCC(=O)Nc2cccc3c2CN(C2CCC(=O)NC2=O)C3=O)c1 (stereo partly drawn) [Compound D57, N-((1R)-1-(3-((6-(2-(2-((6-((2-(2,6-dioxopiperidin-3-yl)-1-oxoisoindolin-4-yl)amino)-6-oxohexyl)oxy)ethoxy)ethoxy)hexyl)oxy)phenyl)ethyl)-3-(((4-methyl-5-(pyrimidin-4-yl)-4H-1,2,4-triazol-3-yl)methyl)amino)benzamide] | > 10 | > 10
33 | 18 | 53 | < 100 | – | – | – | – | – | – | – | – | – | Cn1c(CNc2cccc(C(=O)NCc3cccc(OCCCCCn4cc(CCCC(=O)Nc5cccc6c5CN(C5CCC(=O)NC5=O)C6=O)nn4)c3)c2)nnc1-c1ccncn1 (stereo not shown) [Compound D59] | > 10 | > 10
34 | 55 | 68 | < 100 | – | – | – | – | – | – | – | – | – | Cn1c(CNc2cccc(C(=O)NCc3cccc(OCCCCCCn4cc(CCCC(=O)Nc5cccc6c5CN(C5CCC(=O)NC5=O)C6=O)nn4)c3)c2)nnc1-c1ccncn1 (stereo not shown) [Compound D63] | > 10 | > 10
62 | 79 | 83 | < 100 | 26 | 77 | Dose dependent | – | – | – | – | – | – | Cn1c(CNc2cccc(C(=O)NCc3cccc(OCCCCCOCCCOCC(=O)Nc4cccc5c4CN(C4CCC(=O)NC4=O)C5=O)c3)c2)nnc1-c1ccncn1 (stereo not shown) [Compound D64, N-(3-((5-(3-(2-((2-(2,6-dioxopiperidin-3-yl)-1-oxoisoindolin-4-yl)amino)-2-oxoethoxy)propoxy)pentyl)oxy)benzyl)-3-(((4-methyl-5-(pyrimidin-4-yl)-4H-1,2,4-triazol-3-yl)methyl)amino)benzamide] | > 10 | > 10
40 | 55 | 71 | < 100 | 8 | 58 | Dose dependent | 8 | – | – | – | – | – | Cn1c(CNc2cccc(C(=O)NCc3cc(OCCCCCCOCCOCCOCCCCCC(=O)Nc4cccc5c4CN(C4CCC(=O)NC4=O)C5=O)ccc3F)c2)nnc1-c1ccncn1 (stereo not shown) [Compound D66, N-(5-((6-(2-(2-((6-((2-(2,6-dioxopiperidin-3-yl)-1-oxoisoindolin-4-yl)amino)-6-oxohexyl)oxy)ethoxy)ethoxy)hexyl)oxy)-2-fluorobenzyl)-3-(((4-methyl-5-(pyrimidin-4-yl)-4H-1,2,4-triazol-3-yl)methyl)amino)benzamide] | > 10 | > 10
74 | 87 | 90 | < 100 | 60 | 83 | Dose dependent | 38 | – | – | – | – | – | CC(NC(=O)c1cccc(NCc2nnc(-c3ccncn3)n2C)c1)c1cccc(OCCCCCCOCCOCCOCCCCCC(=O)Nc2cccc3c2CN(C2CCC(=O)NC2=O)C3=O)c1 (stereo not shown) [Compound D67, N-(1-(3-((6-(2-(2-((6-((2-(2,6-dioxopiperidin-3-yl)-1-oxoisoindolin-4-yl)amino)-6-oxohexyl)oxy)ethoxy)ethoxy)hexyl)oxy)phenyl)ethyl)-3-(((4-methyl-5-(pyrimidin-4-yl)-4H-1,2,4-triazol-3-yl)methyl)amino)benzamide] | > 10 | 1 to 10
